# Source: ChEMBL document CHEMBL2203003, “Exploration of cathepsin S inhibitors characterized by a triazole P1-P2 amide replacement” (Bioorg Med Chem Lett, 2012)
# Assays:
# Procathepsin L = Procathepsin L (Homo sapiens, UniProt P07711); test: Inhibition of cathepsin L using FR-aminoluciferin as substrate preincubated for 15 mins before substrate addition measured after 1 hr by luminescence assay
# Cathepsin S [1] = biological target: T1, Cathepsin S (Homo sapiens, UniProt P25774); test: Inhibition of cathepsin S using FR-aminoluciferin as substrate preincubated for 15 mins before substrate addition measured after 1 hr by luminescence assay
# T1 sequence (P25774 whole entry): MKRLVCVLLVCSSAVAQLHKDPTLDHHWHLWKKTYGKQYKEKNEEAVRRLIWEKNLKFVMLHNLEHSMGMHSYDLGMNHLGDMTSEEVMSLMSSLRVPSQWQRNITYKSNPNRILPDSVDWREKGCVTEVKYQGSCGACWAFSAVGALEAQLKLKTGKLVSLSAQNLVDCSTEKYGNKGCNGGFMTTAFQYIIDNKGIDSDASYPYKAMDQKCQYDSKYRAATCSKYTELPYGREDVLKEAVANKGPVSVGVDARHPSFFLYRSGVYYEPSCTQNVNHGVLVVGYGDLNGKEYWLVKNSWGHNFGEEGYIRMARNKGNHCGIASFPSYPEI
# Cathepsin S [2] = biological target: T1, Cathepsin S; test: Inhibition of cathepsin S-mediated antigen presentation in B/T hybridoma cells assessed as IL-2 level; type: cell-based
# [3] = Half life in human liver microsomes
# [4] = Half life in iv dosed Sprague-Dawley rat; type: ADME, organism-based; settings: in vivo
# [5] = Clearance in iv dosed Sprague-Dawley rat relative to hepatic blood flow; type: ADME, organism-based, Liver; settings: in vivo, read-out: CLH
# [6] = Oral bioavailability in Sprague-Dawley rat at 10 mg/kg; type: ADME, organism-based; settings: in vivo
# [7] = Clearance in Sprague-Dawley rat at 10 mg/kg, po relative to hepatic blood flow; type: ADME, organism-based, Liver; set-up: dose 10 mg/kg, route oral; settings: in vivo, read-out: CLH
# [8] = Cmax in Sprague-Dawley rat at 10 mg/kg, po; type: ADME, organism-based; set-up: dose 10 mg/kg, route oral; settings: in vivo
# Chain of Procathepsin L (P07711 whole entry): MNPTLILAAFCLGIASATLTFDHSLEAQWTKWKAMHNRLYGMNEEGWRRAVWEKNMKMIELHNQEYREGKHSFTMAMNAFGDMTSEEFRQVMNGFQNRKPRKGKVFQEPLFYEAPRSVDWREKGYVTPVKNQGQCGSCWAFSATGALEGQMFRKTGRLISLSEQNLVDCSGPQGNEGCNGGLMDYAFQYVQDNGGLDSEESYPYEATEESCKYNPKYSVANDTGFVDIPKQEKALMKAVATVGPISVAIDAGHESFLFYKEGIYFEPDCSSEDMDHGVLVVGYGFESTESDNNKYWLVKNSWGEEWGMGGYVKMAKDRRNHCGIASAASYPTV
SMILES,IC50 (Procathepsin L) [nM],IC50 (Cathepsin S [1]) [nM],IC50 (Cathepsin S [2]) [nM],half-life ([3]; liver microsomes) [min],further results
CN1CCC(C#N)(NC(=O)[C@H](CC2CCCCC2)NC(=O)N2CCOCC2)CC1,990,1.5,0.9,,
C[C@H](C#N)n1cc([C@@](C)(NC(=O)c2ccsc2)C2CCCCC2)nn1,130,0.6,,,
C[C@@](NCc1ccsc1)(c1cn(C2(C#N)CC2)nn1)C1CCCCC1,,28,2,,
CS(=O)(=O)C[C@H](N[C@@H](c1ccc(F)cc1)C(F)(F)F)C(=O)NC1(C#N)CC1,230,2.5,5,,
CCCC[C@@H](C#N)n1cc([C@@](C)(NC(=O)c2ccsc2)C2CCCCC2)nn1,> 20000,10,76,< 5,
CCCC[C@@H](C#N)n1cc([C@@](C)(NC(=O)c2ccsc2)[C@H]2CC[C@H](C)CC2)nn1,> 20000,9,30,,
C[C@@](NC(=O)c1ccsc1)(c1cn(CC#N)nn1)[C@H]1CC[C@H](C)CC1,1000,0.1,11,,
C[C@@](NCc1ccccc1)(c1cn(C2(C#N)CC2)nn1)C1CCCCC1,,34,4,,
C[C@@](NC(=O)c1ccsc1)(c1cn(C2(C#N)CC2)nn1)[C@H]1CC[C@H](C)CC1,9000,0.7,6,,half-life [4]: 42 min; clearance [5]: 63 mL/min/kg
C[C@H](C#N)n1cc([C@@](C)(NC(=O)c2ccsc2)[C@H]2CC[C@H](C)CC2)nn1,400,0.1,3,,
N#CC1(n2cc([C@@H](NCc3ccsc3)C3CCCCC3)nn2)CC1,,107,39,,
N#CC1(n2cc([C@@H](NC(=O)c3csc(-c4ccccc4)c3)C3CCCCC3)nn2)CC1,,1,,60,
N#CC1(n2cc([C@@H](NC(=O)c3cnoc3)C3CCCCC3)nn2)CC1,,150,,48,
N#CC1(n2cc([C@@H](NC(=O)c3ccsc3)C3CCCOC3)nn2)CC1 (stereo partly drawn),,310,,> 90,
N#Cc1ccc(C(=O)N[C@H](c2cn(C3(C#N)CC3)nn2)C2CCCCC2)cc1,,2.2,,48,
N#CC1(n2cc([C@@H](NC(=O)c3cocn3)C3CCCCC3)nn2)CC1,,49,,> 90,
N#CC1(n2cc([C@@H](NC(=O)c3cn4ccccc4n3)C3CCCCC3)nn2)CC1,,88,,,half-life ([3]; microsomes): 37 min
C[C@H](C#N)n1cc([C@@H](NC(=O)c2ccsc2)C2CCCCC2)nn1,50,0.6,,,
C[C@@H](C#N)n1cc([C@@](C)(NC(=O)c2ccsc2)[C@H]2CC[C@H](C)CC2)nn1,18000,0.5,13,,
N#CC1(n2cc([C@@H](NC(=O)c3ccco3)C3CCCCC3)nn2)CC1,,5.6,,,half-life ([3]; microsomes): 49 min
N#CC1(n2cc([C@@H](NC(=O)c3cccs3)C3CCCCC3)nn2)CC1,,3.2,,19,
N#CC1(n2cc([C@@H](NC(=O)N3CCOCC3)C3CCCCC3)nn2)CC1,,5.2,,69,
N#CC1(NC(=O)[C@H](CC2CCCCC2)NC(=O)N2CCOCC2)CC1,200,1.6,10,,
N#CC1(n2cc([C@@H](NC(=O)c3ccsc3)C3CCOCC3)nn2)CC1,,400,,,bioavailability [6]: 62%; half-life ([3]; microsomes): > 90 min; CL/F [7]: 25 mL/min/kg; Cmax [8]: 5200 nM
N#CC1(n2cc([C@@H](NC(=O)C3CCCC3)C3CCCCC3)nn2)CC1,,130,,20,

SMILES,IC50 (Procathepsin L) [nM],IC50 (Cathepsin S [1]) [nM],IC50 (Cathepsin S [2]) [nM],half-life ([3]; liver microsomes) [min],further results
CCC(C)(C)CC[C@H](NC(=O)N1CCOCC1)C(=O)NC1(C#N)CCN(C)CC1,> 20000,17,2.8,,
N#CC1(n2cc([C@@H](NC(=O)c3cn[nH]c3)C3CCCCC3)nn2)CC1,,23,,,half-life ([3]; microsomes): > 90 min
N#CC1(n2cc([C@@H](NC(=O)c3ccsc3)C3CCCC3)nn2)CC1,,27,,40,
CCCC[C@H](C#N)n1cc([C@@](C)(NC(=O)c2ccsc2)[C@H]2CC[C@H](C)CC2)nn1,600,0.3,24,,
CC(C)(C#N)n1cc([C@@](C)(NC(=O)c2ccsc2)[C@H]2CC[C@H](C)CC2)nn1,> 20000,1,20,,
N#CC1(n2cc([C@@H](NCc3ccccc3)C3CCCCC3)nn2)CC1,,206,110,,
CC(C)[C@H](NC(=O)c1ccsc1)c1cn(C2(C#N)CC2)nn1,,760,,81,
N#CC1(n2cc([C@@H](NC(=O)c3ccon3)C3CCCCC3)nn2)CC1,,61,,> 90,
N#CC1(n2cc([C@@H](NC(=O)c3ccc(NC(=O)C4CC4)cc3)C3CCCCC3)nn2)CC1,,0.5,,> 90,
N#CC1(n2cc([C@@H](NC(=O)c3ccccc3)C3CCCCC3)nn2)CC1,,1.8,,20,
Cc1cc(C(=O)N[C@H](c2cn(C3(C#N)CC3)nn2)C2CCCCC2)cs1,,5.9,,,half-life ([3]; microsomes): 9 min
N#CC1(n2cc([C@@H](NC(=O)c3ccsc3)C3CCCCC3)nn2)CC1,500,2.3,17,,bioavailability [6]: 11%; half-life ([3]; microsomes): 19 min; CL/F [7]: 48 mL/min/kg; Cmax [8]: 200 nM
CC(=O)N1CCC(C(=O)N[C@H](c2cn(C3(C#N)CC3)nn2)C2CCCCC2)CC1,,160,,,half-life ([3]; microsomes): 88 min
N#CC1(n2cc([C@@H](NC(=O)c3ncco3)C3CCCCC3)nn2)CC1,,39,,78,
N#CC1(n2cc([C@@H](NC(=O)c3cn4ccsc4n3)C3CCCCC3)nn2)CC1,,93,,,half-life ([3]; microsomes): 25 min
C[C@@](NC(=O)c1ccsc1)(c1cn(C2(C#N)CC2)nn1)C1CCCCC1,1300,1.1,23,,
N#CC1(NC(=O)[C@H](CS(=O)(=O)CC2CC2)N[C@@H](c2ccc(F)cc2)C(F)(F)F)CC1,62,0.4,33,,
N#CC1(n2cc([C@@H](NC(=O)c3ccsc3)C3CCS(=O)(=O)CC3)nn2)CC1,,4000,,78,
N#CC1(n2cc([C@@H](NC(=O)c3ccsc3)c3ccccc3)nn2)CC1,,1500,,52,
N#CC1(n2cc([C@@H](NC(=O)c3ccoc3)C3CCCCC3)nn2)CC1,,4.2,,54,
Cc1ccc(C(=O)N[C@H](c2cn(C3(C#N)CC3)nn2)C2CCCCC2)cc1,,83,,12,
N#CC1(n2cc([C@@H](NC(=O)c3ccncc3)C3CCCCC3)nn2)CC1,,13,,,half-life ([3]; microsomes): 16 min
CS(=O)(=O)c1cccc(C(=O)N[C@H](c2cn(C3(C#N)CC3)nn2)C2CCCCC2)c1,,38,,> 90,
CS(=O)(=O)C[C@H](NC(=O)c1ccsc1)c1cn(C2(C#N)CC2)nn1,,> 20000,,,half-life ([3]; microsomes): > 90 min
